Tests used:
TCR3 [1] = test: I-Ag7 SABR-II HIP library screen, enrichment score; format: cell-based, mouse
From the text: (§1) Given the predominance of HIP-reactive TCRs, we hypothesized that there may be other TCRs that respond to HIPs that were not encoded in our initial library configuration. While the initial I-Ag7 SABR-II library consisted of a number of HIPs, HIP formation is thought to be more widespread in pancreatic β-cells[52],[70]. Therefore, we sought to construct a defined, HIP-focused library to probe whether there were any undiscovered HIP-reactive TCRs that could be recognized by the clonally expanded TCR in our dataset. To test this, we utilized a published proteomic dataset, which predicted that several proteins that were highly expressed in secretory granules of β-cells may contribute to HIP formation. Using their predictions, we built a theoretical HIP library, in which all possible ‘left’ halves of the insulin C chain derived from natural cleavage products were fused to ‘right’ halves derived from secretory granule proteins (Fig. 5a). This 2,561-epitope library (12–25 amino acids per epitope) consisted of only HIPs and a small number of positive control epitopes (Supplementary Table 5). We screened the top three clonally expanded TCRs (TCR1, TCR2 and TCR3) against this library, as these TCRs had not been de-convoluted using the original library. […] To confirm that the HIP itself was important for the cognate interaction, we cloned single 14-mer epitopes into SABR-IIs consisting of seven amino acids of the left portion of the HIP and seven amino acids of the right portion of the HIP. In this way, no nine amino acids from either peptide sequence alone could occupy the binding pocket of I-Ag7, ensuring that TCR reactivity spanned the HIP junction. […] Of note, in all the epitopes that were tested, the ‘left’ half derived from insulin C was conserved, whereas the ‘right’ halves were derived from several other proteins (Fig. 5d). […] Moreover, the promiscuous binding of TCR3 to HIPs corroborates evidence from other NOD mouse-derived TCRs reacting to multiple HIPs[72].
(§2) To generate the I-Ag7 restricted SABR library, we combined all Immune Epitope Database epitopes with a published immunopeptidome generated by Wan et al.[51]. Sequences were filtered remove all post-translational modifications except deamidation and HIPs and trimmed between 9–25 amino acid lengths. For the insulin C HIP and HLA-DQ8 library, non-contiguous epitopes from Wiles et al.[66] as well as all Immune Epitope Database epitopes were combined to generate the epitope list. Epitope sequences were back-translated using the backtranslate_fast.py script.
For SABR library screens, 3 × 10^6 NFAT–GFP Jurkat cells expressing the SABR library were labeled with CellTrace Violet (BioLegend) according to the manufacturer’s protocol before incubation with 3 × 10^6 Jurkat cells expressing the TCR of interest. These mixtures were incubated in a six-well plate for 16–20 h. Cells were stained with anti-CD69-APC-Cy7 where indicated (BioLegend) and the top 1–2% of GFP^+CD69^+ cells were sorted for genomic DNA extraction, indexing and sequencing (see below). Multiplexed assays were scaled on a per-TCR basis (for example 3 × 10^6 for each of three TCRs against 9 × 10^6 library cells). For single SABR assays, unless otherwise defined, 5 × 10^5 SABR expressing NFAT–GFP Jurkat cells (or 5KC cells) were labeled with CellTrace Violet (BioLegend) according to the manufacturer’s protocol before incubation with 5 × 10^5 TCR-expressing Jurkat cells (or 5KC cells) in a round-bottom 96-well plate for 16–20 h. Cells were stained with anti-CD69-APC-Cy7 when indicated and acquired on the Attune NxT flow cytometer (Thermo Fisher Scientific). All flow analysis was performed using FlowJo (BD). For Daudi cell co-culture, 1 × 10^6 Jurkat cells expressing the TCR of interest were incubated with 1 × 10^6 Daudi cells expressing a SABR of interest for 3 days. On day 3, cells were labeled with anti-RT1B-PE and anti-Fas-APC-Cy7 before being acquired on the Attune NxT flow cytometer. […]

GSE.20D11 TCR = test: HLA-DQ8 SABR-II (+ HLA-A2.1 SABR) library screen, enrichment score; format: cell-based, human
From the text: To test whether HLA-DQ8 SABR-II could be used for antigen discovery, we curated a list of insulin B, insulin C and HIP epitopes published by Wiles et al.[58] and cloned them into the DQ8 SABR-II backbone using the same pooled cloning strategy as the I-Ag7 SABR-II library (Supplementary Table 2). Furthermore, we combined SABR-I (the HLA-A*0201 library reported in our previous work[27]) and SABR-II libraries at a cellular level and screened against the GSE.20D11 TCR.
as §2
(§3) For SABR library screens, 3 × 10^6 NFAT–GFP Jurkat cells expressing the SABR library were labeled with CellTrace Violet (BioLegend) according to the manufacturer’s protocol before incubation with 3 × 10^6 Jurkat cells expressing the TCR of interest. These mixtures were incubated in a six-well plate for 16–20 h. Cells were stained with anti-CD69-APC-Cy7 where indicated (BioLegend) and the top 1–2% of GFP^+CD69^+ cells were sorted for genomic DNA extraction, indexing and sequencing (see below). Multiplexed assays were scaled on a per-TCR basis (for example 3 × 10^6 for each of three TCRs against 9 × 10^6 library cells). For single SABR assays, unless otherwise defined, 5 × 10^5 SABR expressing NFAT–GFP Jurkat cells (or 5KC cells) were labeled with CellTrace Violet (BioLegend) according to the manufacturer’s protocol before incubation with 5 × 10^5 TCR-expressing Jurkat cells (or 5KC cells) in a round-bottom 96-well plate for 16–20 h. Cells were stained with anti-CD69-APC-Cy7 when indicated and acquired on the Attune NxT flow cytometer (Thermo Fisher Scientific). All flow analysis was performed using FlowJo (BD). For Daudi cell co-culture, 1 × 10^6 Jurkat cells expressing the TCR of interest were incubated with 1 × 10^6 Daudi cells expressing a SABR of interest for 3 days. On day 3, cells were labeled with anti-RT1B-PE and anti-Fas-APC-Cy7 before being acquired on the Attune NxT flow cytometer.
Genomic DNA was extracted from sorted cells immediately after sorting, using the PureLink genomic DNA extraction kit (Life Technologies). The integrated SABR vectors were amplified with KOD polymerase (Millipore) and two rounds of amplification. In the first round, IDT-UD-SABR-C2-F and IDT-UD-SABR-C2-R primers were used to amplify the epitope. In the second round, UDI0001-R and UDI0001-F primers (representative of index 1) were used to add Illumina unique dual indexes (UDIs) to the amplicons. A different UDI was used for each sample. The reactions were pooled and purified with the NucleoSpin gel and PCR purification kit (Takara). The purified PCR product was checked before sequencing using 2% agarose gel and subjected to sequencing on a HiSeq4000 (Fulgent Genetics). Unaligned reads generated by the sequencer were stored in FASTQ files. FASTQ files were concatenated to generate one file for read1 and read2 each. The sequences were demultiplexed into individual indexes using demultiplex_dual.py. Epitopes were extracted and scored using epitope_extract_fastq_v1.1.py and merge_counts_split_v2.1.py. The ES was calculated using Microsoft Excel (Microsoft) workbooks.

Jurkat cells, No TCR = test: Single SABR-II co-incubation, background without TCR; format: cell-based, human; settings: No TCR, Fig 5C
From the text: (§4) We performed systematic screening of the cloned TCRs against the I-Ag7 SABR-II library. Several TCRs along with a positive control (such as BDC2.5 or 4-8Ins) were screened individually against the library for each sort (Extended Data Fig. 6a and Supplementary Table 4). High- and low-confidence ES zones for each screened TCR were defined by the ES values of the control TCR’s cognate epitopes. For all putative cognate epitopes, single SABR-IIs were constructed, expressed in NFAT–GFP Jurkat cells and used for co-incubation with the corresponding TCRs. Co-incubation assays that yielded a GFP signal higher than that obtained in assays with no TCR were determined to be positive and the epitopes deemed true cognate ligands (Extended Data Fig. 6b,c). Using this strategy, we obtained epitopes in the high-confidence zone for eight TCRs (Fig. 3a and Extended Data Fig. 6b,d). Among numerous altered peptide ligands (APLs), these TCRs recognized the physiological InsC-ChgA HIP ([…] and analogs, recognized by TCR5, TCR6B, TCR9 and TCR34), InsC-Iapp HIP ([…] and analogs, recognized by TCR4 and TCR15) and InsB9:23 ([…] and analogs recognized by TCR24 and TCR37). These cognate high-confidence hits were validated using single SABR-II co-incubation assays (Fig. 3b and Extended Data Fig. 7a). Further validations using in vitro mouse interleukin-2 (mIL-2) secretion by TCR-expressing 5KC reporter cells[13] or CD25 expression by TCR-expressing splenic CD4^+ T cells upon stimulation with the cognate epitope were performed (Extended Data Fig. 7b,c). Furthermore, low-confidence hits were called for ten TCRs and tested in co-incubation assays.
as §3

TCR3 [2] = test: Single SABR-II co-incubation, NFAT-GFP Jurkat; format: cell-based, mouse; settings: TCR 3, Fig 5C
From the text: as §1, §3

TCR4 = test: Single SABR-II co-incubation, NFAT-GFP Jurkat; format: cell-based, mouse; settings: TCR 4, Fig 5C
From the text: as §4, §3

[3] = I-Ag7 HIP library, one biological experiment
[4] = ES = TCRObserved - TCRPredicted, TCRPredicted = LIBObserved x SLOPE + INTERCEPT, SLOPE 1.10224, INTERCEPT -1.65707e-5
[5] = HLA-A2.1 and HLA-DQ8 SABR libraries screened simultaneously, reads mapped to DQ8 library, one biological experiment
[6] = HIP library, TCR 3, TCR_Mean of 3 replicates minus PREDICTED_TCR (slope 0.926662, intercept 2.88051e-5)

EVEDFVKQHLCGPHLVEALYLVCG [theoretical HIP of the I-Ag7 HIP library]
Enrichment score (TCR3 [1]; [3]): -1.381e-6

AAPSVFIFPPSDEQLK
Enrichment score (GSE.20D11 TCR; [4]): -0.0003017 | Enrichment score (GSE.20D11 TCR; [5]): -0.0003017

EDPQVEQLELGGKADEFPDFYDSE
Enrichment score (TCR3 [1]; [6]): 0.001943

EVEDEVEDPQVEQLELGGSPGDLQ [theoretical HIP of the I-Ag7 HIP library]
Enrichment score (TCR3 [1]; [3]): 0.0001951

VEQLELGAKQEEKE [14-mer hybrid insulin peptide spanning the fusion junction, TCR3 hit]
%GFP+CD69+ cells of SABR-NFAT-GFP-Jurkat cells (Jurkat cells, No TCR; technical replicate 1): 1.47% | %GFP+CD69+ cells of SABR-NFAT-GFP-Jurkat cells (Jurkat cells, No TCR; technical replicate 2): 1.55% | %GFP+CD69+ cells of SABR-NFAT-GFP-Jurkat cells (TCR3 [2]; technical replicate 1): 80.7% | %GFP+CD69+ cells of SABR-NFAT-GFP-Jurkat cells (TCR3 [2]; technical replicate 2): 80.6% | %GFP+CD69+ cells of SABR-NFAT-GFP-Jurkat cells (TCR4; technical replicate 1): 1.47% | %GFP+CD69+ cells of SABR-NFAT-GFP-Jurkat cells (TCR4; technical replicate 2): 1.36%

EDPQVEQLELGGAEDQELESLSAI
Enrichment score (TCR3 [1]; [6]): 0.001322

APKRPPSAF
Enrichment score (GSE.20D11 TCR; [4]): 2.7496e-5 | Enrichment score (GSE.20D11 TCR; [5]): 2.7496e-5

VEQLELGSGKEVKG [14-mer hybrid insulin peptide spanning the fusion junction, TCR3 hit]
%GFP+CD69+ cells of SABR-NFAT-GFP-Jurkat cells (Jurkat cells, No TCR; technical replicate 1): 3.79% | %GFP+CD69+ cells of SABR-NFAT-GFP-Jurkat cells (Jurkat cells, No TCR; technical replicate 2): 4% | %GFP+CD69+ cells of SABR-NFAT-GFP-Jurkat cells (TCR3 [2]; technical replicate 1): 78.8% | %GFP+CD69+ cells of SABR-NFAT-GFP-Jurkat cells (TCR3 [2]; technical replicate 2): 77.6% | %GFP+CD69+ cells of SABR-NFAT-GFP-Jurkat cells (TCR4; technical replicate 1): 4.13% | %GFP+CD69+ cells of SABR-NFAT-GFP-Jurkat cells (TCR4; technical replicate 2): 4.17%

EVEDPQVEQLELNAARDPNRESLD
Enrichment score (TCR3 [1]; [6]): 0.002309

Source: paper PMC11093748, “De novo identification of CD4^+ T cell epitopes” (Nature Methods, 2024)
